Several values for one entry are separate records, joined by “and”; a condition that tells them apart may be missing. Identical values can stand only once.
Experiments:
[1] = test system: UMPS locus; experiment: InDel quantification by ICE and ICE-D in activated T cells; type: cell-based, human; details: for ICE InDels (%) / ICE-D InDels (%): Cas9 RNP electroporated into activated T cells, 4 days
Text: sgRNAs were acquired with chemical modifications from Synthego Corporation. The sgRNAs were complexed with Cas9 protein (IDT) at a molar ration of 2.5:1 (sgRNA:protein) and electroporated into activated T cells using a 4D-NUCLEOFECTOR™ system (Lonza). 4 days later, cells were harvested, and genomic DNA extracted using QUICKEXTRACT™ DNA Extraction Kit (Epicentre) according to the manufacturer's protocol. The sgRNA target site was amplified with specific primers (Table 18) and the amplicon sequenced by Sanger sequencing (MCLab, South San Francisco).
InDel quantification was performed on the sequences using the interference of CRISPR edits (ICE) and ICE-D online tools (ice.synthego.com) (FIG. 5A).

[2] = test system: UMPS wild-type K562 cells; experiment: K562 xenograft model, bioluminescence imaging; type: in vivo, NSG mice; details: subcutaneous xenograft, normal or UTA supplemented food
Text: (§1) For the K562 xenograft assay, 6 to 12 weeks old male NOD SCID gamma mouse (NSG) mice were transplanted with 1×10^6 K562 cells resuspended in […]® protein mixture (Corning, Inc.) 1:1 diluted with PBS under anesthesia. All animals were kept and handled according to institutional guidelines and the experimental protocol was approved by Stanford University's Administrative Panel on Laboratory Animal Care.
(§2) The previously engineered UMPS^KO/KO K562 cell line expressing firefly luciferase (FLuc) was used in a xenograft model in NSG mice. […] Cas9 RNP is targeted to exon 1 of the HBB locus with a guide RNA and a DNA donor template transduced by rAAV6 which carries a FLuc-2A-GFP-polyA cassette under control of the SFFV promoter. FACS analysis was performed four days after targeting of K562 cells to evaluate GFP expression before sorting of the GFP+ population. In a control group administered the AAV only, 1.61% of the cells were GFP+, and […].
(§3) UTA was acquired from Accela ChemBio Inc. and added to make the 8% (w/w) to Teklad mouse food (Envigo) and the food irradiated before use. […]
(§4) UMPS^KO/KO K562 cells or control cells were transplanted subcutaneously and observed weekly with bioluminescence imaging. Luminescence imaging of K562 cells was performed 5 minutes after intraperitoneal (ip) injection of 125 mg/kg D-Luciferin (PerkinElmer) on an IVIS Spectrum imaging system (PerkinElmer). […]

[3] = test system: UMPS^KO/KO K562 cells; experiment: K562 xenograft model, bioluminescence imaging; type: in vivo, NSG mice; details: subcutaneous xenograft, food with 8% UTA vs food without UTA
Text: as §1, §2, §3, §4

[4] = test system: UMPS^KO/KO engineered hES cells; experiment: Teratoma formation from engineered hES cells; type: in vivo, NSG mice
Method: To determine whether the safety switch can eradicate teratomas that originate from pluripotent cells, iPSCs or ES cells that were genetically modified (or control cells) were transplanted into mice. The cells expressed luciferase for in vivo detection. 1×10^6 UMPS-engineered hESCs were resuspended in a 100 μl of […]® protein mixture (Corning, Inc.) and PBS mixture and injected into the gastrocnemius muscle of the right hind leg of anesthetized NSG mice. The mice were followed up for tumor formation by tumor size measurement and by bioluminescence imaging. After establishment of tumors, whether withdrawal of Uridine triacetate (UTA) led to tumor regression was tested. At the endpoint (tumor sizes above 1.7 cm or impairment of mouse activity, otherwise 24 weeks) tumor was explanted and fixated for histological analysis.
Auxotrophic cell proliferation of the UMPS^KO/KO engineered hES cells in vivo was also analyzed. […] Bone marrow is analyzed at the time that the animal dies or is sacrificed (latest 16 weeks after injection). […] Groups were compared by statistical tests as indicated using Prism 7 (GraphPad).

[5] = cited from earlier work

UMPS-6: sgRNA for UMPS exon 1, target sequence + PAM GGCGGTCGCTCGTGCAGCTT TGG (SEQ ID NO: 6) (guide GGCGGTCGCTCGTGCAGCTTTGG; listed as DNA, chemistry not given here; the letters are possibly those of the target site; listed as Homo sapiens)
ICE InDels (%) [1]: 12% | ICE-D InDels (%) [1]: 11%

CC(=O)OC[C@H]1O[C@@H](n2ccc(=O)[nH]c2=O)[C@H](OC(C)=O)[C@@H]1OC(C)=O [UTA, uridine triacetate]
tumor burden of UMPS wild-type K562 cells [2]: increase in tumor burden | luminescence of UMPS^KO/KO K562-derived tumors [3]: only increased in the mice fed with 8% UTA | Teratoma weight, Weight [g] ([4]; NSG mice fed 8% (w/w) UTA food, 7 weeks after cell injection into hind leg, per mouse): 3.11 g and 0.033 g and 2.92 g and 1.54 g and 0.937 g | teratoma formation ([4]; mice fed with UTA, 7 weeks after cell injection): large teratomas | increase of uridine serum levels ([5]; humans and mouse models, administration of prodrug): greater than 10 fold | tolerability ([5]; mice, food enriched with 8% (w/w) UTA): well tolerated

UMPS-3: sgRNA for UMPS exon 1, target sequence + PAM CCCCGCAGATCGATGTAGAT GGG (SEQ ID NO: 4) (guide CCCCGCAGATCGATGTAGATGGG; target sequence plus PAM, further chemistry not given here; listed as Homo sapiens)
ICE InDels (%) [1]: 45% | ICE-D InDels (%) [1]: 43%

B1: UMPS-7: sgRNA for UMPS exon 1, target sequence + PAM … TGG (SEQ ID NO: 5); gRNA SEQ ID NO: 1 (nucleic acid)
guide: GCCCCGCAGAUCGAUGUAGAGUUUUAGAGCUAGAAAUAGCAAGUUAAAAUAAGGCUAGUCCGUUAUCAACUUGAAAAAGUGGCACCGAGUCGGUGCUUUU
modifications: listed as RNA, chemistry not given here
ICE InDels (%) [1]: 39% | ICE-D InDels (%) [1]: 93% | type of edits created ([1]; detectable by ICE-D but not by ICE or TIDE): high proportion of large (greater than 30 bp) deletions | frequency of InDels in initial screening ([1]; initial sgRNA screening): highest frequency of InDels
